In patent US20030148963A1 (priority 2000, published 2003):
Marks after values point to notes of the source that are not given here.

Assays:
[1] = test system: IC-21 cells; assay: Viability and cell number of IC-21 cells; type: cell-based, murine; details: IC-21, etoposide-containing medium at concentrations 0.1 and 0.01 mM (so in the source); preliminary experiments, data not shown
Procedure: (§1) These cells display many typical features of the macrophage phenotype and are therefore a suitable model for studying cytoline and chemokine release during inflammation (16). The cells were maintained in continous culture using RPMI-1640 supplemented with 10% FCS, L-glutamine, and gentamycin. When the cells had grown to about 70% confluency, they were seeded into a 24-well-plate (Nunc) at a concentration of 1×10^5 per well and incubated at 37° C. in 5% CO2 for 24 h. After 24 h the medium was changed into etoposide-containing medium at concentrations 0.1 and 0.01 mM. […] After 24 h of incubation, the cells were washed once with PBS, and reincubated with medium containing different concentrations (1, 10, 100, 1000 ng/ml) of LPS (Difco) and IFN-γ (10, 50, 100 u/nml). The interferon-γ was purified from the supernatants from Chinese hanater ovary (CHO) cells transfected with the murine IFN-γ gene (hybridoma kindly provided by Dr. Morris, Department of Biological Sciences, University of Warwick, Coventry, UK). After 2 and 24 h of incubation the supernatants were collected and stored at −20° C. until analysis.

[2] = test system: granulocyte mediated inflammatory response; assay: Olive oil induced inflammation (foot-pad swelling); type: in vivo; details: non-infected mice, n=6, 24 h after injection; no difference to controls
Procedure: Olive oil induces in vivo a strong granulocyte mediated but T cell independent inflammatory response. Inflammation was induced by injection of 30 μl olive oil (Apoteksbolaget AB, Göteborg, Sweden) intradermally in hind foot-pad. […] Foot-pad swelling was registered 24 h after injection using an Oditest spring caliper. The intensity of the olive oil induced inflammation was expressed (foot-pad thickness^24 h−foot-pad thickness^0 h)×10^−3 cm.

[3] = test system: IL-6; assay: Serum IL-6 in S. aureus infected mice (B9 bioassay); type: in vivo, NMRI mice; details: six days after 1.4×10^7 CFU S. aureus; 12.5 mg/kg from three days prior; mean ± SEM, n = 6
Procedure: The cell line B 13,29, subclone B9, which is dependent on IL-6 for its growth, was used for IL-6 determinations. The cells were seeded into microtiter plates at a concentration of 5000 cells/well and samples in different dilutions were added. One μCi of (3H) TdR (Amersham) was added after 68 h of culture, and the cells were harvested 4 h later. The results were compared with recombinant IL-6 standard (Genzyme, Cambridge, Mass.). The B9 cells were previously shown not to react with several recombinant cytolines including IL.-1, IL.-, L-2, IL-3, IL-5, granulocyte/macrophage CS17, TNF.-, and IFN.-, There was only a weak reactivity with IL-4 [14].

[4] = test system: RANTES; assay: RANTES release by IC-21 macrophage cell line; type: cell-based, murine; details: data not shown
Procedure: Levels of TNF, IL-1b, RANTES, and macrophage inflammatory protein (MIP)-1α were determined using sandwich ELISA from R&D Systems (Minneapolis, Minn.).
as §1, with “h.” for “h. After 24 h the medium was changed into etoposide-containing medium at concentrations 0.1 and 0.01 mM.”

[5] = test system: IL-6; type: cell-based, NMRI mice; details: spleen cells from non-infected in vivo etoposide-treated mice; mean ± SEM, four mice
[6] = test system: collagen induced arthritis (CIA); assay: Collagen induced arthritis, clinical evaluation; type: in vivo, B10.QxDBA/1 female mice
Procedure: B10.QxDBA/1 female mice were used in all experiments. They were aged from 11-16 weeks. In all experiments the mice were age-matched. The mice were kept in the animal facility at the University of Göteborg, under standard conditions of light and temperature and fed standard laboratory chow and water ad libitum.
Rat type II collagen (CII) from a chondrosarcoma was prepared by pepsin digestion and purification as described previously (9). The preparation of CII was dissolved at a concentration of 2 mg/ml in 0.1M acetic acid and stored at 4° C. Arthritis was induced by intradermal injection at the base of the tail with 50 μl of 100 μg CII emulsified with an equal volume of complete Freuid/s adjuvant (CFA; containing Mycobacterium butyricum, Difco, Detroit, Mich.). Mice were boosted with the same volume and concentrations of CII emulsified in incomplete Freund's adjuvant (IFA; Difco) 21 days after the first immunization.
Mice were primed and booster-immunized with CII. They were divided into three groups. […] The third group of mice were controls (n—17), receiving treatment with PBS. Prior to the start of the experiment, six mice in each group were bled for hematological analyses.
At regular time points the mice were examined concerning development of arthritis. Arthritis was defined as visible joint erythema and/or swelling of at least one joint. To evaluate the intensity of arthritis, a clinical scoring system of 0 to 3 points for each limb was used (1 point, mild swelling and/or erythema; 2 points, moderate swelling and erythema; 3 points, marked swelling and erythema). The arthritic index was constructed by adding the scores from all four limbs for each animal (11).

[7] = test system: TNF-α; assay: Serum TNF-α in S. aureus infected mice (ELISA); type: in vivo, NMRI mice; details: six days after 1.4×10^7 CFU S. aureus; 12.5 mg/kg from three days prior; mean ± SEM, n = 6
Procedure: The levels of TNF.- were determined using sandwich enzyme-linked immunosorbent assays (ELISA) kit from R&D Systems Minneapolis, Minn.).

For `COc1cc([C@@H]2c3cc4c(cc3[C@@H](O[C@@H]3O[C@@H]5CO[C@@H](C)O[C@H]5[C@H](O)[C@H]3O)[C@H]3COC(=O)[C@H]23)OCO4)cc(OC)c1O` [Etoposide], the “Cell viability or total cell numbers” value [1] was “not to influence the cell viability or total cell numbers”, the “Foot-pad swelling, olive oil induced inflammation” value [2] was 128±131 ×10^−3 cm and the “Serum IL-6” value [3] was 11.927 ± 4.610^b pg/ml. For the same compound, the RANTES release [4] was “upregulated”, the “IL-6, ConA stimulated” value [5] was 455 ± 85^b pg/ml and the “IL-6, TSST-1 stimulated” value [5] was 255 ± 66b pg/ml. For the same compound, the “Arthritic score of diseased mice” value ([6]; Etoposide pretreated, Day 46) was 0, the “Arthritic score of diseased mice” value ([6]; Etoposide pretreated, Day 53) was 0 and the “Arthritic score of diseased mice” value ([6]; Etoposide pretreated, Day 61) was 0. For the same compound, the “Arthritic score of diseased mice” value ([6]; Etoposide treated (from day 40), Day 46, mean ± SEM) was 2.4 ± 0.2 (n = 5), the “Arthritic score of diseased mice” value ([6]; Etoposide treated (from day 40), Day 53, mean ± SEM) was 5.4 ± 1.3 (n = 5) and the “Arthritic score of diseased mice” value ([6]; Etoposide treated (from day 40), Day 61, mean ± SEM) was 5.6 ± 1.3 (n = 5). For the same compound, the “Mice with clinical signs of arthritis” value ([6]; Etoposide-pretreated: 12.5 mg/kg from two days prior to CII immunization, then 4 days weekly, almost nine weeks) was “none of 19”, the “Mice exhibiting arthritis at the end of the experiment” value ([6]; Etoposide-treated: 12.5 mg/kg 4 days per week from 40 days after immunization, 5 of 17, controls 53%) was 29% and the Changes in weight ([6]; between or within the groups (pretreated, treated, controls)) was “No significant changes in weight”. The “Reduction of frequency of disease” value ([6]; mice treated with etoposide at the onset of clinical arthritis) was 50% and the “Serum TNF-α” value [7] was 30 ± 12 pg/mL.
